In article PMC11355573, “A New Renieramycin T Right-Half Analog as a Small Molecule Degrader of STAT3” (Marine Drugs, 2024):
Read-outs that look alike come from different tables or passages of the source.

Key:
BEAS-2B cells = experiment: MTT assay in non-tumorigenic bronchial epithelial cells (selectivity); type: cell-based; settings: Homo sapiens, 24 h, read-out: BEAS-2B IC50 ± SD
Protocol: NSCLCs H292 and H460 were treated with various concentrations of derivatives of the RT right-half analog for 24 h. […] However, the IC50 values for DH_17, DH_20, DH_23, and DH_26 in H460 cells were greater than 100 μM. TM-(−)-18 was identified as a potent compound in a previous study. The structure of TM-(−)-18 was present in Figure 1A. […] To assess the selectivity of DH_28, DH_30, DH_31, and TM-(−)-18 in lung cancer cells, non-tumorigenic epithelial cell lines derived from human bronchial epithelial cells (BEAS-2B) were treated with DH_28, DH_30, DH_31, and TM-(−)-18 at various concentrations for 24 h.
Figure 2 The effect of RT right-half analogs on cytotoxicity in NSCLC and human normal lung epithelial (BEAS-2B) cell lines and apoptotic cell death in NSCLC cells. (A) NSCLC H292 and H460 cells were treated with derivatives of RT right-half analogs for 24 h and analyzed using MTT assay to assess cytotoxicity. (B) IC50 values for H292 and H460 cell lines were calculated. (C) BEAS-2B cells were treated with DH_28, DH_30, DH_31, and TM-(−)-18 for 24 h. The cytotoxic effects were evaluated using an MTT assay, and the IC50 values for BEAS-2B cells were determined. (D) H292 and H460 cells were seeded and treated with 0–10 μM of DH_28, DH_30, and DH_31 for 24 h. Hoechst 33342 and PI were used to stain the cell nuclei. Images were obtained under a fluorescence microscope. (E) The percentages of cell death were calculated based on the stained images in H292 and H460 cells. […] TEXT PRINTED IN THE PICTURE: (B) DH_17: IC50 ± SD (μM) H292: 20.50 ± 3.69; IC50 ± SD (μM) H460: > 100 | (B) DH_20: IC50 ± SD (μM) H292: 21.46 ± 3.77; IC50 ± SD (μM) H460: > 100 | (B) DH_23: IC50 ± SD (μM) H292: 17.50 ± 3.08; IC50 ± SD (μM) H460: > 100 | (B) DH_26: IC50 ± SD (μM) H292: 7.18 ± 2.39; IC50 ± SD (μM) H460: > 100 | (B) DH_28: IC50 ± SD (μM) H292: 9.56 ± 1.87; IC50 ± SD (μM) H460: 11.48 ± 1.87 | (B) DH_30: IC50 ± SD (μM) H292: 7.80 ± 2.30; IC50 ± SD (μM) H460: 4.51 ± 0.78 | (B) DH_31: IC50 ± SD (μM) H292: 5.54 ± 1.04; IC50 ± SD (μM) H460: 2.90 ± 0.58 | (B) TM-(–)-18: IC50 ± SD (μM) H292: > 100; IC50 ± SD (μM) H460: 7.89 ± 1.27 | (C) DH_28: BEAS-2B IC50 ± SD (μM): 16.46 ± 2.11 | (C) DH_30: BEAS-2B IC50 ± SD (μM): 5.50 ± 1.70 | (C) DH_31: BEAS-2B IC50 ± SD (μM): 6.51 ± 1.40 | (C) TM-(–)-18: BEAS-2B IC50 ± SD (μM): 7.25 ± 1.25 DOUBTS OF THE COPYIST ABOUT THIS PICTURE: Panel C, DH_28, IC50: small print, 16.46 ± 2.11 is the best reading; 6 could be 8 / Panel C, DH_30, IC50: small print, 5.50 ± 1.70 is the best reading; 5 could be 6 / Panel C, DH_31, IC50: small print, 6.51 ± 1.40 is the best reading; 6 could be 8 or 5 / Panel C, TM-(–)-18, IC50: small print, 7.25 ± 1.25 is the best reading

H292 cells = type: cell-based; settings: for apoptosis: 24 h
Protocol: (§1) Apoptosis is a crucial mechanism of cell death induced by anticancer drugs. We further analyzed the apoptosis induction effect of the potent small molecules, namely DH_28, DH_30, and DH_31. Nuclear morphology detected by the staining with nucleus-specific fluorescence dye Hoechst 33342 and cell-impermeable PI for necrotic detection was performed. Morphologic changes by means of condensed and/or fragmented nuclei were observed after 24 h of treatment (Figure 2D). […] Therefore, DH_31 was selected for further experiments.
(§2) Figure 2 The effect of RT right-half analogs on cytotoxicity in NSCLC and human normal lung epithelial (BEAS-2B) cell lines and apoptotic cell death in NSCLC cells. (A) NSCLC H292 and H460 cells were treated with derivatives of RT right-half analogs for 24 h and analyzed using MTT assay to assess cytotoxicity. (B) IC50 values for H292 and H460 cell lines were calculated. (C) BEAS-2B cells were treated with DH_28, DH_30, DH_31, and TM-(−)-18 for 24 h. The cytotoxic effects were evaluated using an MTT assay, and the IC50 values for BEAS-2B cells were determined. (D) H292 and H460 cells were seeded and treated with 0–10 μM of DH_28, DH_30, and DH_31 for 24 h. Hoechst 33342 and PI were used to stain the cell nuclei. Images were obtained under a fluorescence microscope. (E) The percentages of cell death were calculated based on the stained images in H292 and H460 cells. Data represent the mean ± SD (n = 3). *, **, and *** indicate a statistically significant difference between the treated and the untreated cells at p < 0.05, p < 0.01, and p < 0.001, respectively. TEXT PRINTED IN THE PICTURE: (B) DH_17: IC50 ± SD (μM) H292: 20.50 ± 3.69; IC50 ± SD (μM) H460: > 100 | (B) DH_20: IC50 ± SD (μM) H292: 21.46 ± 3.77; IC50 ± SD (μM) H460: > 100 | (B) DH_23: IC50 ± SD (μM) H292: 17.50 ± 3.08; IC50 ± SD (μM) H460: > 100 | (B) DH_26: IC50 ± SD (μM) H292: 7.18 ± 2.39; IC50 ± SD (μM) H460: > 100 | (B) DH_28: IC50 ± SD (μM) H292: 9.56 ± 1.87; IC50 ± SD (μM) H460: 11.48 ± 1.87 | (B) DH_30: IC50 ± SD (μM) H292: 7.80 ± 2.30; IC50 ± SD (μM) H460: 4.51 ± 0.78 | (B) DH_31: IC50 ± SD (μM) H292: 5.54 ± 1.04; IC50 ± SD (μM) H460: 2.90 ± 0.58 | (B) TM-(–)-18: IC50 ± SD (μM) H292: > 100; IC50 ± SD (μM) H460: 7.89 ± 1.27 | (C) DH_28: BEAS-2B IC50 ± SD (μM): 16.46 ± 2.11 | (C) DH_30: BEAS-2B IC50 ± SD (μM): 5.50 ± 1.70 | (C) DH_31: BEAS-2B IC50 ± SD (μM): 6.51 ± 1.40 | (C) TM-(–)-18: BEAS-2B IC50 ± SD (μM): 7.25 ± 1.25 DOUBTS OF THE COPYIST ABOUT THIS PICTURE: Panel C, DH_28, IC50: small print, 16.46 ± 2.11 is the best reading; 6 could be 8 / Panel C, DH_30, IC50: small print, 5.50 ± 1.70 is the best reading; 5 could be 6 / Panel C, DH_31, IC50: small print, 6.51 ± 1.40 is the best reading; 6 could be 8 or 5 / Panel C, TM-(–)-18, IC50: small print, 7.25 ± 1.25 is the best reading

H460 cells = type: cell-based; settings: 24 h
Protocol: as §1, §2

[1] = system: NSCLC cells (H292 and H460); experiment: Hoechst 33342/PI staining, percentage of dead cells in NSCLC; type: cell-based, human; settings: 10 μM, 24 h
Protocol: as §1
Figure 2 The effect of RT right-half analogs on cytotoxicity in NSCLC and human normal lung epithelial (BEAS-2B) cell lines and apoptotic cell death in NSCLC cells. (A) NSCLC H292 and H460 cells were treated with derivatives of RT right-half analogs for 24 h and analyzed using MTT assay to assess cytotoxicity. (B) IC50 values for H292 and H460 cell lines were calculated. (C) BEAS-2B cells were treated with DH_28, DH_30, DH_31, and TM-(−)-18 for 24 h. The cytotoxic effects were evaluated using an MTT assay, and the IC50 values for BEAS-2B cells were determined. (D) H292 and H460 cells were seeded and treated with 0–10 μM of DH_28, DH_30, and DH_31 for 24 h. Hoechst 33342 and PI were used to stain the cell nuclei. Images were obtained under a fluorescence microscope. (E) The percentages of cell death were calculated based on the stained images in H292 and H460 cells. […]

detached H460 cells = experiment: Anoikis assay (viability under detachment, MTT); type: cell-based, human; settings: H460, 1 and 2.5 μM, at 12 h (p < 0.01) and 24 h (p < 0.001)
Protocol: Anoikis, a detachment-induced apoptosis, is a mechanism to prevent metastasis, so resistance to anoikis enhances the potential of metastasis. To confirm that DH_31 induces anoikis, the detached H460 cells were treated with 1 and 2.5 μM of DH_31 for 6, 12, and 24 h.
MTT assay was conducted to ascertain cell viability after treatment with DH-31 under detachment conditions. H292 and H460 cells (5.0 × 10^3 cells per well) were seeded in ultra-low attachment 96-well plates and treated with different concentrations of DH_31 (0–2.5 μM) at 37 °C. At 0, 6, 12, and 24 h of incubation, the cell suspensions were transferred onto regular cell culture plates in growth medium to facilitate attachment. After 3 h, images of cells that survived anoikis and recovered their adherent growth ability were captured with a 10 × objective using an inverted microscope (Olympus IX51 with DP70; OlympusbAmerica Inc., Center valley, PA, USA). Then, the medium in each well was removed and replaced with 100 µL of MTT solution. Cell viability was assessed using MTT assay, following the manufacturers’ protocols. Anoikis resistance was calculated as a percentage compared with the control.

COc1c(C)cc2c(c1O)[C@@H]1CN(Cc3ccc4ccccc4c3)[C@@H](C#N)[C@H](C2)N1C [DH_31, (1R,4R,5S)-10-hydroxy-9-methoxy-8,11-dimethyl-3-(naphthalen-2-ylmethyl)-1,2,3,4,5,6-hexahydro-1,5-epiminobenzo[d]azocine-4-carbonitrile]
IC50 (BEAS-2B cells): 6.51 ± 1.4 µM | apoptosis (H292 cells; H292, 1 µM): significant apoptosis | apoptosis (H292 cells; H292, 10 µM): significant apoptosis | necrosis (H292 cells; H292, 10 µM, 24 h (p < 0.001)): Necrosis was detected | necrosis (H460 cells; H460, 1 µM): did not cause significant necrosis | apoptotic cell death (H460 cells; H460, 10 µM): significant apoptotic cell death | necrosis (H460 cells; H460, 10 µM): did not cause significant necrosis | dead cells in NSCLC [1]: 34–66% | cell viability of detached cells (anoikis) (detached H460 cells): significant decrease
